Test results published in US10894785B2, “Piperidine derivatives for use in the treatment of pancreatic cancer” (CENTRE HOSPITALIER UNIVERSITAIRE VAUDOIS CHUV, priority 2016, dated 2021).
pIC50: −log10 of the molar value.

Experiments:
[1] = system: pancreatic ductal adenocarcinoma (Panc-1); assay: Anti-tumor activity on Panc-1: cell viability by sulforhodamine or MTT assay; type: cell-based; details: Homo sapiens, Panc-1 cells, 96 hours treatment, 0.001-1000 nM
Method: The compounds according to the present invention were evaluated for their anti-tumor activities on pancreatic ductal adenocarcinoma (Panc-1). To this end, 0.5×10^6 human malignant cells were treated with various concentrations (0.001-1000 nM) for 96 hours of FK866 or the compounds according to the present invention. Subsequently cell viability was determined using either sulforhodamine assays as described in Caffa I, et al. (Oncotarget. 2015 May 20; 6(14):11820-32) or MTT assays. Sulforhodamine B is a dye able that binds to cellular proteins. […] For MTT assays, human malignant cells were plated in triplicate on 96-well plates and treated as mentioned above. After 96 hours of incubation, 15 μL of dye solution was added to each well and cells were incubated for an additional 4 hours. Stop solution (100 μL/well) was added for 1 hour and the absorbance was read at 570 nm on a spectrophotometer. To confirm whether the cytotoxicity exerted by these compounds involves programmed cell death, drug-induced cell death was evaluated using annexin V and 7AAD double staining as described by the manufacturer for assessing apoptosis or autophagic-cell death using a Beckman Coulter Cytomics Gallios flow cytometer. Dead cells were identified as annexinV+ and/or 7AAD+. GraphPad Prism version 7.00 (GraphPad Software, San Diego, Calif.) was used for IC50 calculation.

[2] = Pharmacokinetics after intraperitoneal administration in female SCID mice (plasma, LC-MS/MS, non compartmental analysis); type: in vivo; details: 20 mg/kg IP; for CL: CL calculated as dose/AUC; for Percentage of extrapolated AUC from T6 h to infinity / T1/2α / T1/2β / half-lives in the second phase (6 h→24 h) compared with FK866 / Cmax / Tmax / AUC(0-inf) / AUC(0-t): plasma; for Percentage of extrapolated AUC from T6 h to infinity: relative to AUC0-inf; for T1/2α: t½α (0 -> 6 h); for T1/2β: t½β (6 -> 24 h); for half-lives in the second phase (6 h→24 h) compared with FK866: versus FK866; for Cmax / Tmax / AUC(0-inf) / AUC(0-t): mouse; for AUC(0-inf): log-trapezoidal rule, extrapolated to infinity; for AUC(0-t): read-out: AUC0-8 h
Method: The pharmacokinetics parameters of FK866, FE1199, VAL22-2 and MPM07 were determined following intraperitoneal administration (IP) in female SCID mice.
• SCID (Severe Combined ImmunoDeficiency) mice female total 144 • 25 mM in DMSO (dimethylsulfoxyde) of each test drug • Saline solution (0.9%)
Test drugs were dissolved in saline solution at 20 mg/ml. All dosing solutions were controlled by HPLC (High-Performance Liquid Chromatography) analysis. Mouse weight is estimated around 20 g.
Three mice per time point were used in each group.
Blood samples were collected on citrate at 10 min, 30 min, 1 h, 2 h, 4 h, 6 h, 8 h and 24 hours after drug administration. Following centrifugation, resulting plasma was stored at […] pending bioanalysis. Samples were analyzed by LC-MS/MS (Liquid chromatography tandem-mass spectrometry); the lower limit of quantification achieved was between 3 and 12 nM depending on drug. Non compartmental pharmacokinetic analysis was performed on plasma concentration data.

Structure (SMILES) | pIC50 [1] | CL [2] | Percentage of extrapolated AUC from T6 h to infinity [2] | T1/2α [2] | T1/2β [2] | half-lives in the second phase (6 h→24 h) compared with FK866 [2] | Cmax [2] | Tmax [2] | AUC(0-inf) [2] | AUC(0-t) [2]
O=C(/C=C/c1cccnc1F)NCCCCC1CCN(C(=O)c2cccs2)CC1 [MPM-07] | 8.82 | 38.5 mL/h | 2.0% | 21.6 min | 1535 min | improved and longer half-lives | 13200 ng/mL | 10 min | 5200 ng·h/mL | 5110 ng·h/mL
CCCn1cc(C=O)c(C(=O)N2CCC(CCCCNC(=O)/C=C/c3cccnc3F)CC2)c1C [MPM-14, (E)-3-(2-fluoropyridin-3-yl)-N-(4-(1-(4-formyl-2-methyl-1-propyl-1H-pyrrole-3-carbonyl)piperidin-4-yl)butyl)acrylamide] | 8.12 |  |  |  |  |  |  |  |  | 

The remaining compounds from weak to strong by pIC50 [1], led by results:

pIC50 [1] | CL [2] | Percentage of extrapolated AUC from T6 h to infinity [2] | T1/2α [2] | T1/2β [2] | half-lives in the second phase (6 h→24 h) compared with FK866 [2] | Cmax [2] | Tmax [2] | AUC(0-inf) [2] | AUC(0-t) [2] | Structure (SMILES)
7.74 | 9.6 mL/h | 1.2% | 27.6 min | 229 min |  | 28100 ng/mL | 10 min | 20800 ng·h/mL | 20700 ng·h/mL | O=C(/C=C/c1cccnc1)NCCCCC1CCN(C(=O)c2ccccc2)CC1 [FK866, (E)-N-[4-(1-benzoylpiperidin-4-yl)butyl]-3-(pyridin-3-yl)acrylamide, reference compound]
7.85 |  |  |  |  |  |  |  |  |  | O=C(/C=C/c1ccc(F)nc1F)NCCCCC1CCN(C(=O)c2ccccc2)CC1 [PER-201, (E)-N-(4-(1-benzoylpiperidin-4-yl)butyl)-3-(2,6-difluoropyridin-3-yl)acrylamide]
8.30 |  |  |  |  |  |  |  |  |  | O=C(/C=C/c1ccc(F)nc1F)NCCCCC1CCN(C(=O)c2cccs2)CC1 [PER-202]
8.59 | 38.3 mL/h | 0.5% | 18.6 min | 606.6 min | improved and longer half-lives | 12100 ng/mL | 10 min | 5230 ng·h/mL | 5200 ng·h/mL | N#C/N=C(\NC/C=C/CCC1CCN(C(=O)c2ccco2)CC1)Nc1ccncc1 [FEI-199, (E)-2-Cyano-1-((E)-5-(1-(furan-2-carbonyl)piperidin-4-yl)pent-2-en-1-yl)-3-(pyridin-4-yl)guanidine]
